Where two headings read alike, the source gives them in different places.
Key:
[1] = tested on: Hep G2 cells; experiment: Nicotinamide Reversibility Assay / cell growth inhibition of Hep G2 cells (SRB, six days); format: cell-based, human; conditions: for IC50: read-out: Cell growth inhibition IC50-values [μM] Hep G2; for Reversal by Niacinamide: Hep G2 cell growth inhibition with added nicotinamide
Description: Nicotinamide Reversibility Assay
Hep G2 cells derived from a human liver carcinoma were plated at a density of 20,000 cells/ml in 12-well plastic dishes. Cultivation occurred in Richters IMEM-ZO nutrient medium with 5% fetal calf serum (FCS) in a tissue culture incubator with a gas mixture of 5% CO2 and 95% air at a temperature of 37° C. One day after plating, the culture medium was aspirated from the cells and replaced by fresh medium which contained the respective concentrations of the test compounds and where applicable of the nicotinamide. For the individual concentrations and the controls without test compounds, three-fold batches were done for each. Three days after the beginning of treatment, the medium was again renewed with the test compounds and where applicable the nicotinamide. After six days of compound incubation, the test was ended and the protein amount in the individual wells was determined with the sulforhodamin-B-method (according. to P. Skehan et al.: New Colorimetric Cytotoxicity Assay for Anticancer-Drug Screening. J. Natl. Cancer Inst. 82: 1107-1112, 1990). The IC50-values were taken from the dose-response curves and given as a comparative measurement for the activity of the test compounds.

[2] = tested on: HepG2 cells; experiment: Cell growth under high-density conditions (SRB assay), delayed cell death (DCD); format: cell-based, human; conditions: for minimal effective concentration: Homo sapiens; for minimal effective concentration / Tox. (effective (toxic) concentration) in DCD: high density HepG2 cultures; for Tox. (effective (toxic) concentration) in DCD: toxic compounds, rapid decrease in cell numbers
[3] = target: T1, niacinamide phosphoribosyltransferase (NAPRT, EC 2.4.2.12) (Homo sapiens, UniProt P43490); experiment: Niacinamide phosphoribosyltransferase (NAPRT) assay, protamine-treated cytoplasmic fraction of K-562 cells; format: biochemical; conditions: for NAM: niacinamide mononucleotide formed, controls 79.1 and 71.8; for NA: niacinamide remaining, controls 389.7 and 397.0; for NA [%] / NAM [%]: portion of total radioactivity
T1 construct: protamine-treated cytoplasmic fraction of K-562 cells as the enzyme source; endogenous in cells; host or cells: K-562 (ATCC CCL 243), freeze-thaw lysate, 23,000 x g supernatant treated with protamine sulfate
Description: The effect of the compounds on the enzyme niacinamide phosphoribosyltransferase (NAPRT, EC 2.4.2.12) was investigated using for example protamine-treated cytoplasmic fraction of K-562 cells as the enzyme source according to the NAPRT assay described in the experimental part below. The investigated compounds were used in concentrations of 10 μM, except for K22387 and K22133 where the concentration was 1 μM.
The assay is based on the amount of radioactive incorporation from ^14C-labelled niacinamide into niacinamide mononucleotide (NAM). NAM is subsequently separated from niacinamide (NA) by thin-layer chromatography and its quantity is determined by autoradiography.
Niacinamide Phosphoribosyltransferase (NAPRT) Assay
The human cell line K-562 (chronic myelogenous leukaemia) is obtained from the American Type Culture Collection (ATCC CCL 243), Rockville, Md., USA. The K-562 cells are cultured in RPMI (Sigma, Deisenhofen, Germany, Product No.: R6504) containing 10% foetal calf serum (PAN Systems GmbH, Aidenbach, Germany), 2.2 g/l NaHCO3 (Merck, Darmstadt, Germany), 50,000 IU/l penicillin and 50 mg/l streptomycin (Sigma).
The K-562 cells are grown in RPMI supplemented with 10% FCS at 37° C. and 100% humidity in a 5% CO2 atmosphere up to a density of 2×10^6 cells per ml. Under these conditions, the cells grow logarithmically with a generation time of 24 hours. The cells are harvested by aspiration and centrifugation (250×g, 10 min, RT). Thereafter, the cells are washed at least 3 times by repeated centrifugation (250×g, 10 min, RT) and resuspension in CMF-PBS. After counting the cell suspension in a haematocytometer, the cells are spun into a tight pellet (390×g, […], RT) and the supernatant is carefully drawn off with a Pasteur pipette. The cells are then vortexed into suspension in sufficient lysis buffer to give a final concentration of 3×10^7 cells per ml. The suspension is frozen at −80° C. for at least one day and thawed slowly at room temperature to break up the cells. The breakage is usually greater than 95%, as determined by trypan blue exclusion. Following centrifugation at 23,000×g for 90 min at 0° C., the clarified supernatant is recovered on ice and 70 μl of 1% protamine sulfate is added per ml of supernatant. After 15 min on ice, the cloudy suspension is centrifuged a further 30 min at 23,000×g and 0° C. The final supernatant is stored in small aliquots at […] This supernatant contains about 950 to 1440 μg protein per ml. 120 to 140 μg protein per sample is used in the NAPRT assay (total assay volume: 0.5 ml).
The niacinamide phosphoribosyltransferase activity is determined in a reaction solution of 0.5 ml consisting of 5 mM MgCl2, 2 mM ATP, 0.5 mM PRPP, and [^14C]niacinamide (10^−5 M to 10^−7 M) in 50 mM Tris buffer pH 8.8 (final concentrations in the assay). The reaction is started by adding 100 to 120 μl cell extract. After incubation for 1 hour at 37° C., the enzyme reaction is stopped by adding cold niacinamide (50 μl of a 100 mM niacinamide solution per 0.5 ml reaction mixture) and by heating on a heating block (2 min, 105° C.). The precipitate is removed by centrifugation (2,500×g, 10 min, 4° C.) and the supernatant is collected into a […] polypropylene vial with screw cap and stored at −20° C. until further analysis. A 10 μl aliquot is taken from the supernatant to determine the total amount of radioactivity.
The ^14C-labelled components of the reaction mixture are separated and identified using thin-layer chromatography (TLC). 5 to 7.5 μl of each sample is transferred to a cellulose TLC foil using an automated sample applicator. The cellulose foil is developed using 1 M NH4 acetate:ethanol (3:7) as solvent. The chromatogram is run with added non-radioactive standards of NAD, NADP, NAM and niacinamide, and the spots were identified by UV absorption (RF values see Table 7). For autoradiography, the chromatogram is exposed to an imaging plate BAS-IIIs in a hypercassette for at least two days. […]

[4] = tested on: NAD(P) synthesis from niacinamide in HepG2 cells; experiment: Determination of NAD(P) synthesis from [14C]niacinamide in HepG2 cells; format: cell-based, human
Source text: The effect of the compounds on the synthesis of NAD(P) starting from niacinamide was investigated using for example the tumor cell line HepG2 according to the technique described in the experimental part below.
The inhibition of the NAD(P) synthesis from niacinamide by these compounds was investigated in HepG2 cells as described in the section “Material and Methods”. The compounds of Table 3 a were used at a concentration of 10^−5 M. The compounds of Table 3 b were used at concentrations of at least 10^−5 M, except for Doxorubicin where the concentration was 0.3×10^−5 M. As a control, vehicle treated or untreated cells were used.
In these experiments, a pre-incubation period of 17 hrs with the compounds was used, but it turned out that the pre-incubations period could be shortened, for example to 2 hrs, or skipped completely without affecting the inhibition profile. […] Similar results were obtained with the other specific compounds.
For the detection of specific inhibitors of niacinamide mononucleotide formation the following screening assay is especially useful which comprises the following steps: incubating cultured cells selected from HepG2 cells, U-87 MG cells, MCF-7 M1 cells, Caki-1 cells, HL-60 cells, PC3 cells, U-373 MG cells, A549 cells and KG-1a cells in the presence of [^14C]niacinamide and a compound to be tested for its activity to inhibit the cellular formation of niacinamide mononucleotide; effecting lysis of the cells; isolating and separating the [^14C]-labeled compounds and measuring the amount of formed labeled niacinamide mononucleotide, NAD and NADP. More concretely, cultured cells are seeded in a defined density in culture dishes, followed by incubation in the presence of a test compound and by the addition of [^14C]niacinamide for about 0.1 to 6 hrs. The cells are then lysed with perchloric acid and the resulting extract is neutralized. Finally, the [^14C]-labeled compounds are separated by thin-layer chromatography on cellulose matrices followed by UV detection and autoradiography. Non-radioactive niacinamide derivatives are used as standards. This assay allows simple and effective screening and selection of the compounds according to the invention.
Determination of NAD(P) Synthesis from [^14C]Niacinamide
The cells were detached from 75 cm^2 flasks by removing the growth medium and adding 3 ml trypsin/EDTA solution to each flask. After about 5 minutes incubation at 37° C., when the cells were detached from the surface of the dishes, trypsinization was stopped by adding 3 ml Richter's IMEM-ZO medium containing 10% FCS. The cells were suspended by repeated pipetting. For predilution, an aliquot of 20 μl was added to 10 ml Casyton isotonic solution (No. 043-90037P, Schärfe System, Reutlingen, Germany) using a Sysmex Auto Dilutor Type AD-260 (Toa, Medical Electronics Co. Ltd., Kobe, Japan). The cell number was determined by electronic cell volume measurements and counting with a CASY 1 Cell Counter+Analyzer System, Model TTC (Schärfe System, Reutlingen, Germany) equipped with a 60 μm capillary. Following dilution in IMEM-ZO containing 10% FCS, the cells were finally seeded at a density of 4×10^6/10 ml per sample in Ø 10 cm tissue culture dishes (Greiner, Frickenhausen, Germany) and incubated at 37° C. in a humidified atmosphere of 5% CO2 in air.
After one day, when the cells were adherent to the dishes, the cultures were replenished with IMEM-ZO containing 5% FCS plus the test compound or the vehicle. […] The cells were then incubated at 37° C. for 17 hours in a humidified atmosphere of 5% CO2 in air. This preincubation period is not necessary to achieve a distinct inhibitory action of the compounds and can be shortened for example to 2 or 0 hours. After this period of time, the medium was again discarded and 4 ml HEPES-buffered IMEM-ZO containing the test compound or the vehicle and 0.5 μCi/ml [^14C]niacinamide were added to each culture for an additional 5 hours at 37° C. and 100% humidity. […]

[5] = Homo sapiens, HepG2, 144 h, Hep G2, six days of compound incubation, SRB
[6] = minimum concentration which, despite initial growth, induced cell death below the number of initially seeded cells, Table 2
[7] = Table 3b, at least 10^-5 M, control 374.00
[8] = Table 3b, toxic compounds at at least 10^-5 M, control 531

T1 sequence (P43490 whole entry): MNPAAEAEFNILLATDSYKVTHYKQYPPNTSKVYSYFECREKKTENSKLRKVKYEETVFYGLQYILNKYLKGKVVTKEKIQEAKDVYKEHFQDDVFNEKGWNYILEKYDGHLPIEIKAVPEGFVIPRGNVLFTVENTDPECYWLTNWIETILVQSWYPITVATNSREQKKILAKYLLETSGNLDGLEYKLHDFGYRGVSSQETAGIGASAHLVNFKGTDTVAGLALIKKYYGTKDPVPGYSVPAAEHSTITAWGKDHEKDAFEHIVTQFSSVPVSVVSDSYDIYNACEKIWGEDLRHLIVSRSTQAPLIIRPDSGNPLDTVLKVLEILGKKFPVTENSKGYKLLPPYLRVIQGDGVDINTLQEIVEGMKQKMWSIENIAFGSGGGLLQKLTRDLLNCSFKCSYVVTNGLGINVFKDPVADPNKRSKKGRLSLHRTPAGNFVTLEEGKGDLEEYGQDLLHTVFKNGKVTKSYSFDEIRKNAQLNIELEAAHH

SMILES | IC50 [1, 5] [µM] | minimal effective concentration ([2]; Table 5) [µM] | minimal effective concentration [2, 6] [µM] | Influence of the addition of nicotinamide on the action on cell growth (FIGS. 20 to 27) ([1]; Hep G2) | Reversal by Niacinamide [1] | Tox. (effective (toxic) concentration) in DCD [2] | NAD(P) % of Control ([4]; Table 3b, at least 10^-5 M) [%] | NAD(P) pmol/mg protein [4, 7] [pmol/mg protein] | NAD(P) pmol/10^6 cells [4, 8] [pmol/10^6 cells] | also measured
O=C(/C=C/c1cccnc1)NCCCCCCCC(c1ccccc1)c1ccccc1 [Compound K22133, N-(8,8-diphenyl-octyl)-3-pyrid-3-yl-acrylamide] | 0.02 | 0.03 | 0.03 |  |  |  |  |  |  | NAM ([3]; compound 1 μM): 0.0 pmol/h; NA ([3]; compound 1 μM): 468.8 pmol/h; NA [%] ([3]; compound 1 μM): 100.00%; NAM [%] ([3]; compound 1 μM): 0.00%
O=C(NCCCCCCNC(=O)NCc1cccnc1)NCCC(c1ccccc1)c1ccccc1 [Compound K22158, 1-(3,3-diphenylpropyl)-3-[6-(3-pyridine-3-yl-methylureido)-hexyl]-urea] | 0.1 | 1 | 1 |  |  |  |  |  |  | NAM ([3]; compound 10 μM): 0.0 pmol/h; NA ([3]; compound 10 μM): 468.8 pmol/h; NAM [%] ([3]; compound 10 μM, controls 16.88 and 15.32): 0.00%; NA [%] ([3]; compound 10 μM, controls 83.12 and 84.68): 100.00%
O=C(NCCCCC1CCN(C(c2ccccc2)c2ccccc2)CC1)NCCc1cccnc1 [Compound K22339, 1-[4-(1-benzhydryl-piperidine-4-yl)-butyl]-3-(2-pyridine-3-ylethyl)-urea] | 0.1 | 0.1 | 0.3 | can be antagonized | yes |  |  |  |  | Day on which cell death occurred ([2]; concentrations of at least 0.3 μM, high density HepG2 culture): 4 days; inhibition at 1 µM ([4]; Homo sapiens, 1 μM, read-out: Cellular NAD synthesis inhibition [%]): 99%; activity at 10 µM ([4]; Homo sapiens, Table 3a, compound 10^-5 M, read-out: NAD(P) % of Control): 0.8%; NAD(P) pmol/10^6 cells ([4]; Table 3a, compound 10^-5 M, 17 hrs pre-incubation, control 302.1): 2.5 pmol/10^6 cells; NAD(P) pmol/mg protein ([4]; Table 3a, compound 10^-5 M, control 186.4): 1.6 pmol/mg protein
NC(=O)c1c[se]c([C@@H]2O[C@H](CO)[C@@H](O)[C@H]2O)n1 [Selenazofurin, reference compound] |  |  |  | no measurable influence | no | Tox. 30 μM | 70.2 | 372.29 | 372.29 | IC50 ([1]; Hep G2, six days of compound incubation, SRB): 0.7 µM; Cellular NAD synthesis inhibition [%] ([4]; 10 μM): 30 (10 μM) %
NC(=O)c1csc([C@@H]2O[C@H](CO)[C@@H](O)[C@H]2O)n1 [Tiazofurin, reference compound] |  |  |  | no measurable influence | no | Tox. 300 μM | 78.1 | 292.30 | 414.47 | IC50 ([1]; Homo sapiens, HepG2, 144 h): 10 µM; inhibition at 100 µM ([4]; Homo sapiens, 100 μM, read-out: Cellular NAD synthesis inhibition [%]): 22%

Source: patent US20020160968A1, “Inhibitors of cellular niacinamide mononucleotide formation and their use in cancer therapy” (Klinge Pharma GmbH, priority 1999, published 2002)
